According to patent US8541670B2, “Compositions and methods for inhibiting tumor cell growth” (priority 2007, dated 2013):
Where no end group is shown, it is not given here. red fluorescent dye = not defined here

How the values were obtained:
SGK = target: T1, SGK (Homo sapiens, UniProt O00141); experiment: In vitro kinase assay SGK; assay type: biochemical; details: ten times higher concentration than 0.1 μM
T1 construct: endogenous in cells
T1 sequence (O00141 1-431): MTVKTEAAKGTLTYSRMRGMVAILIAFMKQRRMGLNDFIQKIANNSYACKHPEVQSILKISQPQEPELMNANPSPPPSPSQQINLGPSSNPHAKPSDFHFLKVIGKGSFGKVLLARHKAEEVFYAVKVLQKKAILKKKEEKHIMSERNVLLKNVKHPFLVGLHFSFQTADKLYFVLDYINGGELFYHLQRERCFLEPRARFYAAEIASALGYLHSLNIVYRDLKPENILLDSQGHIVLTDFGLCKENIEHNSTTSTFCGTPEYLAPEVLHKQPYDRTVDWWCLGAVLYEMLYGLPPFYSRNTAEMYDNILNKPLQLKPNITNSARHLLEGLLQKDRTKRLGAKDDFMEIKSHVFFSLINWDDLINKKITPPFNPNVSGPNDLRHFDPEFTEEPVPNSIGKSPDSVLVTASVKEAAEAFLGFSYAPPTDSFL
Experimental: As a specific substrate, the phosphorylation level of GSK-3[…] at Ser-9 was also evaluated. […] The decrease was specific to the AKT phosphorylation site on GSK-3[…] at Ser-9, since a change in the phosphorylation level of GSK-3[…] at Tyr-216 or GSK-3[…] at Tyr-279 was not observed. Moreover, the in vivo reduction of the phosphorylation of AKT substrates was more obvious at the injection site, since a significant change in the phosphorylation of AKT substrates in the frontal cortex or cerebellum between the two hemispheres was not observed. […] To test the specificity/selectivity of ZaTa as the inhibitor of AKT1 versus the other major kinases, a series of in vitro kinase assays was performed at IC50 for AKT1 and at ten times higher concentrations. A panel of the following 32 kinases was first tested in vitro using the active form of each kinase and a specific substrate: AKT2, AKT3, PKA, PKC[…], PKC, PI3K[…], PI3K[…], PI3K, SGK, PAK2, PAK3, SAPK2/p38, Abl, CaMKII, CDK1/cyclinB, CDK5/p35, CK1, CK2, CSK, GSK3[…], GSK3[…], JNK1[…]1, MAPK1, p70S6K, PDGFR[…], PDGFR[…], PDK1, PKG1[…], TrkB, JAK2, JAK3, and Syk. […] However, at ten times higher concentration, ZaTa inhibited AKT2 (63%), PI3K[…] (72%), p70S6K (64%), SGK (73%), PAK3 (83%), JAK3 (79%), TrkB (84%), and Abl (42%). […]

JAK3 = target: T2, JAK3 (Homo sapiens, UniProt P52333); experiment: Cell-based kinase assay, phosphorylation of intracellular substrate (Tyr-1022/1023 JAK1)
T2 construct: endogenous in cells
T2 sequence (P52333 1-1124): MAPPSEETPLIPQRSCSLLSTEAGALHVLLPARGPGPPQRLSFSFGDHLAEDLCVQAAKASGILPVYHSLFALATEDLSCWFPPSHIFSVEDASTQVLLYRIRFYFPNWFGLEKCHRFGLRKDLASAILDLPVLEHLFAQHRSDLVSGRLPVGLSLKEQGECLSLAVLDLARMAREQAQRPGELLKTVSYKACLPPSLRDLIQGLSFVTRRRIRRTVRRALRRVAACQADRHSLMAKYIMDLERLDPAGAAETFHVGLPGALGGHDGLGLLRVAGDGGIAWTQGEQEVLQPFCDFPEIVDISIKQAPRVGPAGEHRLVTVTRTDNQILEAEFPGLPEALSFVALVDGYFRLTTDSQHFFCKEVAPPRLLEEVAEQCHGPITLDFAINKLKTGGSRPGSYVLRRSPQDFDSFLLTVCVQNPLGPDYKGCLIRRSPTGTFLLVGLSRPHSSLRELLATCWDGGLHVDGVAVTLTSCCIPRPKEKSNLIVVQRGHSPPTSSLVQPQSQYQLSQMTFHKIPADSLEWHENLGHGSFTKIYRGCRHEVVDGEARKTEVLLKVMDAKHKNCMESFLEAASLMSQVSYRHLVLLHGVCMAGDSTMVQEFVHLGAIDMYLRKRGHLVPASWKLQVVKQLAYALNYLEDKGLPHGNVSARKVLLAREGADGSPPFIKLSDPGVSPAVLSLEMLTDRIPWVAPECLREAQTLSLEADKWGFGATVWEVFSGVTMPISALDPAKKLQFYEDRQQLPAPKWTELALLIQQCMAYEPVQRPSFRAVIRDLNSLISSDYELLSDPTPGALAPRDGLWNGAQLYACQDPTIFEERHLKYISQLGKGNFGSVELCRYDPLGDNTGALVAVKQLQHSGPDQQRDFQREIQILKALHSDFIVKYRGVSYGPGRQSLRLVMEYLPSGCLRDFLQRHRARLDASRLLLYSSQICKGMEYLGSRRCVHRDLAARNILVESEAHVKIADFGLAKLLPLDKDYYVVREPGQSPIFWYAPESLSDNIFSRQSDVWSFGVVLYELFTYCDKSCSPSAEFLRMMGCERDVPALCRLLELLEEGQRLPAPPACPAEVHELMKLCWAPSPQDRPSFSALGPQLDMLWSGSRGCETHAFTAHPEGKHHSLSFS
Experimental: As a specific substrate, the phosphorylation level of GSK-3[…] at Ser-9 was also evaluated. […] The decrease was specific to the AKT phosphorylation site on GSK-3[…] at Ser-9, since a change in the phosphorylation level of GSK-3[…] at Tyr-216 or GSK-3[…] at Tyr-279 was not observed. Moreover, the in vivo reduction of the phosphorylation of AKT substrates was more obvious at the injection site, since a significant change in the phosphorylation of AKT substrates in the frontal cortex or cerebellum between the two hemispheres was not observed. […] To test the specificity/selectivity of ZaTa as the inhibitor of AKT1 versus the other major kinases, a series of in vitro kinase assays was performed at IC50 for AKT1 and at ten times higher concentrations. […]
Phosphorylation sites for kinases analyzed herein included Ser-235/236 S6 (a substrate for p70S6K), Tyr-207 CRKL (a substrate for Abl; Zipfel, et al. (2004) supra), Ser-241 PDK1 (a substrate for PI3K), Tyr-1022/1023 JAK1 (a substrate for JAK3; Wang, et al. (2003) supra), Ser-421 Huntingtin (a substrate for SGK; Rangone, et al. (2004) supra), Tyr-783 PLC (a substrate for TrkB; Middlemas, et al. (1994) supra), and Ser-338 cRaf (a substrate for PAK3; King, et al. (1998) supra).

Substance	inhibition of SGK (SGK)	inhibition of JAK3 in cells (JAK3)
AKRVKGRTWTLCGTPEY [ZaTa]	73%	–
labeled ZaTa: ZaTa peptide labeled with a red fluorescent dye at its N-terminus ({red fluorescent dye}-AKRVKGRTWTLCGTPEY; reading uncertain)	–	did not cause inhibition
